The results in this text go back to ChEMBL document CHEMBL6071177, “Medium-Ring Keto Bislactams with Antischistosomal Activity” (J Med Chem, 2024).

pIC50: −log10 of the molar value. ≈ marks a conversion by molar mass, not a printed value.

Data set [1] is described as follows: Lipophilicity, logD of compound at pH 7.4 by HPLC analysis. The format is physicochemical. The note with it: buffer.
Data set [2] in a line: Solubility of compound in 0.01 M HCl at pH 2.0 by nephelometry. The format is physicochemical.
Data set [3] can be described thus: Solubility of compound in phosphate buffer at pH 6.5 by nephelometry. It is filed as physicochemical.
Data set [4] is described as follows: Intrinsic clearance in human liver microsomes. In general terms: Liver microsomes are vesicles of endoplasmic reticulum, rich in cytochrome P450 enzymes.
A short description of data set [5]: Intrinsic clearance in mouse liver microsomes.
For data set [6], the system named is Schistosoma mansoni. The experiment in a line: Anti-schistosomal activity against newly transformed Schistosoma mansoni assessed as parasite viability at 10 uM measured after 3 days relative to control. The format is functional. The note with it: time 3 day.
Data set [7] has as its system Schistosoma mansoni. Kind of data set: Anti-schistosomal activity against adult Schistosoma mansoni assessed as parasite viability at 10 uM measured after 3 days relative to control. The settings on record: time 3 day. It is filed as functional.
A short description of data set [8]: Cytotoxicity against rat L6 cells. It is filed as toxicity, cell-based.
Data set [9] in a line: Half life in Swiss mouse at 100 mg/kg, po measured upto 48 hrs by LC-MS analysis. It is filed as ADME, organism-based. The note with it: in vivo.
Data set [10] is described as follows: AUC (0 to 24 hrs) in Swiss mouse at 100 mg/kg, po measured upto 48 hrs by LC-MS analysis. The settings on record: in vivo. The format is ADME, organism-based.
The nature of data set [11]: Cmax in Swiss mouse at 100 mg/kg, po measured upto 48 hrs by LC-MS analysis. The format is ADME, organism-based. The note with it: in vivo.
In data set [12] the test system is Schistosoma mansoni. Kind of data set: Ex vivo anti-schistosomal activity against adult Schistosoma mansoni assessed as inhibition of parasite viability measured after 3 days. It is filed as functional, organism-based. The settings on record: 72 h.

A word on the logD: it is the decadic logarithm of the distribution of all forms, ionised or not, between an organic phase and buffer at a given pH. A word on the kinetic solubility: it is the concentration staying in solution when a stock, usually in DMSO, is diluted into the medium. Usually pIC50 stands for the IC50 on a negative log10 scale, so that one unit is a factor of ten. With `O=C1CCN2C(=O)c3ccccc3C2C(=O)Nc2ccc(F)cc21` (stereo not drawn), the pH-dependent lipophilicity (logD) in data set [1] was 1.4. In addition, the solubility (kinetic) in data set [2] was 160 µM (≈ 51.9 µg/mL); in data set [3], more than 320 µM. Moreover, the CLH in [4] turned out to be 45.4 µL/min/mg; in data set [5], 258 µL/min/mg. Moreover, the figures for the Activity with Schistosoma mansoni [6] and in the data set on Schistosoma mansoni [7] were 30% and 40%, respectively. In addition, the negative-log IC50 (pIC50) in data set [8] is less than 3.51.
In turn, `O=C1CCN2C(=O)c3ccccc3C2C(=O)Nc2ccc(Cl)cc21` (stereo not drawn) showed a logD in data set [1] of 1.8. The solubility (kinetic) in data set [2] was 160 µM (≈ 54.5 µg/mL); in data set [3] it was more than 320 µM. Also, the figures for the CLH in data set [4] and in data set [5] were 101 µL/min/mg and 413 µL/min/mg, respectively. The Activity with Schistosoma mansoni [6] was 38%; in the data set on Schistosoma mansoni [7], 40%. The compound also showed a negative-log IC50 (pIC50) in data set [8] of 3.66.
Turning to `O=C1CCN2C(=O)c3cc4ccccc4cc3C2C(=O)Nc2ccccc21` (stereo not drawn), the logD in [1] was 2.3. Besides, the solubility (kinetic) in data set [2] and in data set [3] was more than 320 µM throughout. The CLH turned out to be 97.4 µL/min/mg in [4] and 212 µL/min/mg in [5]. Moreover, the Activity in the data set with Schistosoma mansoni [6] came to 48%; in the data set with Schistosoma mansoni [7], 40%. In addition, in data set [8], the pIC50 is 4.01.
As for `O=C1CCN2C(=O)c3ccccc3C2C(=O)Nc2cc(F)cc(F)c21` (stereo not drawn), the pH-dependent lipophilicity (logD) in [1] was 1.7. Besides, the solubility (kinetic) in [2] is 160 µM (≈ 54.8 µg/mL); in data set [3], more than 320 µM. Also, the CLH was 21.5 µL/min/mg in data set [4] and 35.6 µL/min/mg in data set [5]. For the same compound, the Activity with Schistosoma mansoni [6] was determined as 23%; in the data set with Schistosoma mansoni [7], 40%. Also, in data set [8], the negative logarithm of the IC50 (pIC50) was 3.70.
Regarding `COc1ccc2c(c1)C(=O)CCN1C(=O)c3ccccc3C1C(=O)N2` (stereo not drawn), the logD in data set [1] was 1.5. The solubility (kinetic) in data set [2] and in [3] was more than 320 µM in each case. Also, the CLH in data set [4] was 57.1 µL/min/mg; in [5] it was 280 µL/min/mg. For the same compound, the values for the Activity with Schistosoma mansoni [6] and in the data set on Schistosoma mansoni [7] were 50% and 42%, respectively. Also, in data set [8], the pIC50 is 3.89.
Broadly, the AUC is concentration integrated over time. Low values mean less exposure, high ones more exposure. As a reminder, the Cmax is the peak of the concentration-time curve. For the compound `O=C1CCN2C(=O)c3ccccc3C2C(=O)Nc2ccccc21` (stereo not drawn), the logD in data set [1] was 1.2. Besides, the figures for the solubility (kinetic) in data set [2] and in [3] were 160 µM (≈ 49 µg/mL) and more than 320 µM, respectively. Also, the figures for the CLH in data set [4] and in [5] were 27 µL/min/mg and 84 µL/min/mg, respectively. Also, the Activity came out at 51% with Schistosoma mansoni [6] and 61% with Schistosoma mansoni [7]. Besides, the pIC50 was less than 3.48 in data set [8] and 5.60 in the data set with Schistosoma mansoni [12]. The compound also gave a t1/2 in [9] of 4.4 h. Also, the AUC in [10] worked out at 810 ng·h/mL. Moreover, in data set [11], the maximum concentration (Cmax) was 189 ng/mL.
With `CCOC(=O)c1ccc2c(c1)C(=O)CCN1C(=O)c3ccccc3C1C(=O)N2` (stereo not drawn), the logD in data set [1] amounted to 2. The solubility (kinetic) in data set [2] and in data set [3] was 40 µM (≈ 15.1 µg/mL) throughout. Moreover, the CLH stood at 55.6 µL/min/mg in data set [4] and 118 µL/min/mg in data set [5]. Besides, the Activity in the data set on Schistosoma mansoni [6] is on record as 21%; in the data set with Schistosoma mansoni [7], 38%. In addition, the pIC50 in data set [8] is less than 3.59.
`COc1cc2c(cc1OC)C1C(=O)Nc3ccccc3C(=O)CCN1C2=O` (stereo not drawn) registered a logD in data set [1] of 1.2. The solubility (kinetic) in data set [2] is 160 µM (≈ 58.6 µg/mL); in data set [3], more than 320 µM. Besides, the CLH was 20.7 µL/min/mg in data set [4] and 37.4 µL/min/mg in [5]. The Activity in the data set on Schistosoma mansoni [6] is listed as 23%; in the data set on Schistosoma mansoni [7] it was 38%. The compound also gave a pIC50 in data set [8] of 3.82.
